Measurements reported in US20080026417A1, “ASSAYS FOR TRICHOMONAL AND OTHER HYDROLASES” (priority 2002, published 2008).
Peptide text beside a SMILES is read from it. * marks the point of attachment. NH(4-MeO-2-naphthyl) = COc1cc(N*)cc2ccccc12; βNA = c1ccc2cc(N*)ccc2c1; Cbz = O=C(OCc1ccccc1)*; Bz = O=C(c1ccccc1)*

Tested on: trichomonal hydrolases
Experiment: Experiment 13: hydrolysis of peptide substrates by trichomonal hydrolases at low pH, no vaginal fluid
Type: biochemical, Trichomonas vaginalis
Parameters: key: −: No red color produced; +: Clearly visible red color produced; ++: Moderately intense red color produced; +++: Very intense red color produced
Conditions: without vaginal fluid; threonine buffer pH 2.4; 2 mM substrate solution; 10 min 25° C.; Fast Garnet
Experimental: Forty μL of each substrate was pipetted into duplicate wells of a microtiter plate. The plate was covered with tape, placed into a 25° C. incubator, and allowed to warm. A diluted enzyme mixture was prepared by mixing one part (v/v) freshly-thawed trichomonal hydrolase solution to nine parts 2 mM L-cysteine solution. Forty μL of this mixture was added to one well of each pair of duplicate wells. For negative controls, 40 μL of 2 mM L-cysteine was added to the second well in each pair of duplicate wells. The plate was returned to the incubator and incubated for ten minutes. Forty μL of SDS/acetate solution was added to each well, followed by 40 μL of Fast Garnet solution. The intensity of color that developed in each well after five minutes was visually scored using the color scale presented in Table 13.1.

Row | Molecule | Color Score
1 | NCC(=O)NCC(=O)Nc1ccc2ccccc2c1 [Gly-Gly-βNA] (H-Gly-Gly-βNA) | −
2 | C[C@H](N)C(=O)Nc1ccc2ccccc2c1 [Ala-βNA] | −
3 | Pro-MNA | −
4 | COc1cc(NC(=O)C(CC(C)C)NC(=O)C(Cc2ccccc2)NC(=O)CNC(=O)C(CCCNC(=N)N)NC(=O)OCc2ccccc2)cc2ccccc12 (stereo not drawn) [CBZ-Arg-Gly-Phe-Leu-MNA] (Cbz-RGFL-{NH(4-MeO-2-naphthyl)}; configuration not given here) | −
5 | N[C@@H](CO)C(=O)N[C@@H](Cc1ccc(O)cc1)C(=O)Nc1ccc2ccccc2c1 [Ser-Tyr-βNA] (H-Ser-Tyr-βNA) | −
6 | NCCCC[C@H](NC(=O)OCc1ccccc1)C(=O)Nc1ccc2ccccc2c1 [CBZ-Lys-βNA] | −
7 | COc1cc(NC(=O)C(CO)NC(=O)C(N)Cc2cnc[nH]2)cc2ccccc12 (stereo not drawn) [His-Ser-MNA] | −
8 | NCC(=O)Nc1ccc2ccccc2c1 [Gly-βNA] | −
9 | CC(C)C[C@H](N)C(=O)N[C@@H](C)C(=O)Nc1ccc2ccccc2c1 [Leu-Ala-βNA] (H-Leu-Ala-βNA) | −
10 | NCC(=O)N[C@@H](Cc1c[nH]c2ccccc12)C(=O)Nc1ccc2ccccc2c1 [Gly-Trp-βNA] (H-Gly-Trp-βNA) | −
11 | COc1cc(NC(=O)[C@@H](N)CCCN=C(N)N)cc2ccccc12 [Arg-MNA] | −
12 | COc1cc(NC(=O)C(CCCN=C(N)N)NC(=O)CN)cc2ccccc12 (stereo not drawn) [Gly-Arg-MNA] | −
13 | COc1cc(NC(=O)C(N)CC(C)C)cc2ccccc12.Cl (centres unmarked) [Leu-MNA] | −
14 | COc1cc(NC(=O)[C@H](CCCNC(=N)N)NC(=O)CNC(=O)CNC(=O)OCc2ccccc2)cc2ccccc12 [CBZ-Gly-Gly-Arg-MNA] | −
15 | COc1cc(NC(=O)C(CCCNC(=N)N)NC(=O)C(C)NC(=O)C(CCC(N)=O)NC(=O)OC(C)(C)C)cc2ccccc12 (stereo not drawn) [BOC-Gln-Ala-Arg-MNA] | −
16 | N[C@@H](Cc1ccccc1)C(=O)Nc1ccc2ccccc2c1 [Phe-βNA] | −
17 | COc1cc(NC(=O)C(CCCNC(=N)N)NC(=O)C2CCCN2C(=O)CNC(=O)OCc2ccccc2)cc2ccccc12 (stereo not drawn) [CBZ-Gly-Pro-Arg-MNA] | −
18 | N=C(N)NCCC[C@H](NC(=O)[C@H](Cc1ccccc1)NC(=O)[C@@H]1CCCN1C(=O)c1ccccc1)C(=O)Nc1ccc2ccccc2c1 [BZ-Pro-Phe-Arg-βNA] (Bz-Pro-Phe-Arg-βNA) | −
19 | COc1cc(NC(=O)[C@H](CCCN=C(N)N)NC(=O)[C@H](CCCCN)NC(=O)[C@H](CCCCN)NC(=O)[C@@H](NC(=O)OCc2ccccc2)C(C)C)cc2ccccc12 [CBZ-Val-Lys-Lys-Arg-MNA] (Cbz-VKKR-{NH(4-MeO-2-naphthyl)}) | +
20 | O=C(Nc1ccc2ccccc2c1)[C@@H]1CCCN1 [Pro-βNA] | −
21 | C[C@H](N)C(=O)N[C@@H](C)C(=O)Nc1ccc2ccccc2c1 [Ala-Ala-βNA] (H-Ala-Ala-βNA) | −
22 | N[C@@H](CO)C(=O)Nc1ccc2ccccc2c1 [Ser-βNA] | −
23 | COc1cc(NC(=O)[C@H](CCCNC(=N)N)NC(=O)[C@H](CCCNC(=N)N)NC(=O)[C@H](CC(C)C)NC(=O)OCc2ccccc2)cc2ccccc12 [CBZ-Leu-Arg-Arg-MNA] | +
24 | N=C(N)NCCC[C@H](NC(=O)[C@@H](N)Cc1ccccc1)C(=O)Nc1ccc2ccccc2c1 [Phe-Arg-βNA] (H-Phe-Arg-βNA) | −
25 | COc1cc(NC(=O)C(Cc2ccccc2)NC(=O)CNC(=O)C(N)CCC(N)=O)cc2ccccc12 (stereo not drawn) [Gln-Gly-Phe-MNA] | −
26 | NCC(=O)N[C@@H](Cc1ccccc1)C(=O)Nc1ccc2ccccc2c1 [Gly-Phe-βNA] (H-Gly-Phe-βNA) | −
27 | N[C@@H](Cc1cnc[nH]1)C(=O)Nc1ccc2ccccc2c1 [His-βNA] | −
28 | COc1cc(NC(=O)C(CCCNC(=N)N)NC(=O)OCc2ccccc2)cc2ccccc12 (centres unmarked) [CBZ-Arg-MNA] | −
29 | COc1cc(NC(=O)C(Cc2ccccc2)NC(=O)CN)cc2ccccc12 (stereo not drawn) [Gly-Phe-MNA] | −
